Assay [1] deals with human serotonin transporter (h-SERT) (Homo sapiens (Human), UniProt P31645). The experiment in a line: [3H] citalopram binding assay to evaluate human serotonin reuptake inhibitory action (h-SERT binding assay). The procedure:
Citalopram Binding Assay to Evaluate Human Serotonin Reuptake Inhibitory Action
(§1) Preparation of the Cells and Membrane Preparations
In the experiment, human serotonin transporter (h-SERT) was expressed in CHO cells (h-SERT/CHO). The cells were incubated with F12 containing 10% FCS, 500 μg/mL Geneticin and 100 U/mL penicillin—100 μg/mL streptmycin (all manufactured by Sigma Aldrich) in an incubator containing 5% CO2; detached and collected using a SERT buffer [50 mmol/L Tris-HCl comprising 120 mmol/L NaCl and 5 mmol/L KCl (pH=7.4)]; homogenized with a homogenizer manufactured by Teflon (trademark); and then centrifuged (50,000×g, 30 min, 4° C.). The precipitate was suspended again in the appropriate amount of SERT buffer (to give a membrane preparation), and stored at −80° C. until used. The amount of protein in the membrane preparation was assayed by Dye Reagent Concentrate (manufactured by BIO-RAD) using bovine serum albumin (manufactured by Sigma Aldrich) as a standard.
1-2. h-SERT Binding Assay
The [^3H] citalopram binding was measured according to the method disclosed in Owens M. J. et al., J. Pharm. […] The solution was reacted at room temperature for 60 minutes, and then quickly suction-filtered under reduced pressure through a glass fiber filter coated with 0.05% aq. polyethyleneimine. The glass fiber filter was washed twice with […] of the SERT buffer, placed in a plastic vial containing 4 mL of liquid scintillator (ACS-II, manufactured by Amersham) or Ecoscint A (manufactured by National Diagnostics), and the remaining radioactivity on the filter paper was assayed with a liquid scintillation counter.

Assay [2] deals with T1, human serotonin 2C receptor (h-5-HT2C) (Homo sapiens (Human), UniProt P28335). Kind of assay: [3H] mesulergine binding assay to evaluate affinity for human 5-HT2C receptor. Conditions: h-5-HT2C/CHO membrane preparation, read-out: Test Ex. 2: 5-HT2C receptor binding inhibition constant Ki. The method, then: Mesulergine Binding Assay to Evaluate Affinity for Human 5-HT2C Receptor
T1 sequence (P28335 whole entry, looked up): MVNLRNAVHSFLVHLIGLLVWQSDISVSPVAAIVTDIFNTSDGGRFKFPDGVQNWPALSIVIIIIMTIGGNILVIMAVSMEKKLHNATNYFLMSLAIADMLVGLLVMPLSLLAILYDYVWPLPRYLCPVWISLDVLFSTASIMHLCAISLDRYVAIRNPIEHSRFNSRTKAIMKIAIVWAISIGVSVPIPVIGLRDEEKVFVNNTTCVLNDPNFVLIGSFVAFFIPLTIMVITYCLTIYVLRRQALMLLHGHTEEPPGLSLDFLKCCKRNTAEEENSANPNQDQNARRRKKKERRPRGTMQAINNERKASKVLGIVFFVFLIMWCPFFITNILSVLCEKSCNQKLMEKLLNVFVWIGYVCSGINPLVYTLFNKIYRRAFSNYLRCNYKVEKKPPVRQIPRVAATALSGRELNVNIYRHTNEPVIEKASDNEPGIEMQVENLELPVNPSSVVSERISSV
as §1
In the experiment, human serotonin 2C receptor (h-5-HT2C) was expressed in CHO cells (h-5-HT2C/CHO). The cells were incubated with UltraCHO Lipuid (trademark) (manufactured by BioWhitakker) containing 1% FBS, 400 μg/mL Geneticin, 100 U/mL penicillin—100 μg/mL streptomycin (all manufactured by Sigma Aldrich) and 250 μg/mL Zeosin (manufactured by InvivoGen) in an incubator containing 5% CO2; detached and collected using 50 mmol/L Tris-HCl (pH=7.4); homogenized with a homogenizer manufactured by Teflon (trademark); and then centrifuged (48,000×g, 25 min, 4° C.). The precipitate was suspended again in the appropriate amount of 50 mmol/L Tris-HCl (to give a membrane preparation), and stored at −80° C. until used. The amount of protein in the membrane preparation was assayed by Dye Reagent Concentrate (manufactured by BIO-RAD) using bovine serum albumin (manufactured by Sigma Aldrich) as a standard.
2-2. 5-HT2C Receptor Binding Assay
A solution of 200 μL in total was prepared by mixing 50 μL of [^3H] mesulergine (manufactured by GE Healthcare) diluted with 50 mmol/L Tris-HCl (pH=7.4) (final concentration: about 2 nmol/L), 149 μL of the h-5-HT2C/CHO membrane preparation (protein amount: 20 μg/well), and 1 μL of the test drug dissolved in dimethylsulfoxide. The solution was reacted at 37° C. for 30 minutes, and then quickly suction-filtered under reduced pressure through a glass fiber filter coated with 1% aq. bovine serum albumin. The glass fiber filter was washed twice with 250 μL of 50 mmol/L Tris-HCl (pH=7.4), placed in a plastic vial containing 4 mL of liquid scintillator (ACS-II, manufactured by Amersham) or Ecoscint A (manufactured by National Diagnostics), and the remaining radioactivity on the filter paper was assayed with a liquid scintillation counter. The non-specific binding of [^3H] mesulergine was defined as a binding amount in the presence of 10 μmol/L SB206553 (manufactured by Sigma Aldrich). The IC50 value was calculated according to Hill analysis, and the binding inhibition constant (Ki) was calculated according to the following formula: Binding inhibition constant (Ki)=IC50/(1+S/Kd) wherein S is a concentration of the added [^3H] mesulergine, and Kd is a binding dissociation constant of [^3H] mesulergine which was calculated from a saturated binding assay using the same cell membrane.

The target of assay [3] is T1, human serotonin 2C receptor (h-5-HT2C). Kind of assay: 5-HT2C receptor agonistic action assay (FLIPR Calcium 4 Assay kit, h-5-HT2C/CHO cells). The class given is cell-based. The conditions noted are these: test material 10 μmol/L; 100% = 10 μmol/L 5-HT, −100% = 10 μmol/L SB206553; below 0% = inverse agonistic action. The procedure:
3-1. The Cells and Inoculation Thereof
In the experiment, human serotonin 2C receptor (h-5-HT2C) was expressed in CHO cells (h-5-HT2C/CHO). The cells were incubated with UltraCHO Lipuid (trademark) (manufactured by BioWhitakker) containing 1% FBS, 400 μg/mL Geneticin, 100 U/mL penicillin—100 μg/mL streptomycin (all manufactured by Sigma Aldrich) and 250 μg/mL Zeosin (manufactured by InvivoGen) in an incubator containing 5% CO2. On the day before using the cells, they were detached and collected using 250 μg/mL Trypsin solution (manufactured by Nacalai Tesque), then inoculated in a 96 well flat clear bottom black polystyrene TC-treated microplates (manufactured by Corning) at 40000 cells/well/60 μL in an incubator containing 5% CO2 for 16 hours to 24 hours.
3-2. 5-HT2C Receptor Agonistic Action Assay
The 5-HT2C receptor agonistic action was evaluated with FLIPR Calcium 4 Assay kit (manufactured by Molecular Devices). In specific, to the cells inoculated in the plate were added Component A of FLIPR Calcium 4 Assay kit dissolved in 100 mL of HHBP buffer (1×Hanks buffer, 20 mmol/L HEPES, both manufactured by Gibco) at an amount of 40 μL/well, and the cells were incubated in an incubator containing 5% CO2 for 1 hour. Then, the cells were set in FLIPR TETRA (trademark) (manufactured by Molecular Devices), to the cells was added the test material diluted with HHBP buffer, 2.5 mmol/L Probenecid (manufactured by Sigma) (concentration after dilution: 10 μmol/L) at an amount of 20 μL/well, and the fluorescence was measured. Then, in order to evaluate the antagonistic action of the test material, 20 μL/well of 5-HT solution (manufactured by Sigma, final concentration: 0.1 nmol/L) was further added to the cells, and the fluorescence was measured.
The 5-HT2C receptor agonistic action of each test material was calculated as a rate of fluorescence enhancement wherein 100% was defined as a value when the cells were given 10 μmol/L 5-HT. Furthermore, the 5-HT2C receptor inverse agonistic action was calculated as a rate of fluorescence decay wherein −100% was defined as a value when the cells were given 10 μmol/L SB206553 (manufactured by Sigma Aldrich). A lower value of the 5-HT2C receptor agonistic action of the test material means that the material has a higher antagonistic action. In particular, when the value of the 5-HT2C receptor agonistic action of the test material is below 0%, the material has an inverse agonistic action for 5-HT2C receptor.

[4] abbreviates: [3H] citalopram binding, read-out: Test Ex. 1: h-SERT binding inhibition constant Ki.

For orientation: Ki means a measure of affinity in units of concentration, obtained from inhibition or displacement.

Counter-ions that a name gives are not always drawn. Like-named read-outs stand apart in the source and are kept apart here.

As to `CNCc1cc(OCc2cc(Cl)ccc2F)n(CC2(C(F)(F)F)CCCC2)n1` [Example 448, 1-(5-[(5-chloro-2-fluorobenzyl)oxy]-1-{[1-(trifluoro-methyl)cyclopentyl]methyl}-1H-pyrazol-3-yl)-N-methylmethanamine], the Ki was 3.8 nM in assay [1] (setting [4]) and 8.8 nM in assay [2].

As to `CNCc1nn(CC2CCCCC2)c(OCc2cc(F)ccc2F)c1F.Cl` [Example 351, 1-{1-(Cyclohexylmethyl)-5-[(2,5-difluorobenzyl)oxy]-4-fluoro-1H-pyrazol-3-yl}-N-methylmethanamine hydrochloride], the Ki in assay [1] was 0.98 nM; in assay [2], 43 nM.

Regarding `CNC(C)c1cc(OCc2cc(F)ccc2F)n(CCC2CCCC2)n1` (centres unmarked) [Example 315, 1-{1-(2-cyclopentylethyl)-5-[(2,5-difluorobenzyl)oxy]-1H-pyrazol-3-yl}-N-methylethanamine], the “Test Ex. 3: 5-HT2C receptor agonistic action” value in assay [3] is −84%.

On to `CNCc1cc(OCc2ccccc2)n(CCC2CCCC2)n1` [Example 192, 1-[5-(Benzyloxy)-1-(2-cyclopentylethyl)-1H-pyrazol-3-yl]-N-methylmethanamine], for which the Ki in assay [1] (setting [4]) stood at 0.91 nM; in assay [2] it was 3.9 nM.

As for `CNCc1cc(OCc2ccc(F)cc2C)n(CC2CCCCC2)n1` [Example 31, 1-{1-(Cyclohexylmethyl)-5-[(4-fluoro-2-methylbenzyl)oxy]-1H-pyrazol-3-yl}-N-methylmethanamine], the results for the Ki in assay [1] (setting [4]) and in assay [2] were 0.92 nM and 5.2 nM, respectively.

As to `CNCc1cc(OCc2cc(F)ccc2F)n(Cc2ccc(C)cc2)n1` [Example 230, 1-{5-[(2,5-difluorobenzyl)oxy]-1-(4-methylbenzyl)-1H-pyrazol-3-yl}-N-methylmethanamine], the Ki in assay [1] (setting [4]) is 2.3 nM; in assay [2], 4.9 nM.

`CNCc1cc(OCc2ccc(F)cc2)n(CC2(C(F)(F)F)CCCC2)n1` [Example 446, 1-(5-[(4-fluorobenzyl)oxy]-1-{[1-(trifluoromethyl)-cyclopentyl]methyl}-1H-pyrazol-3-yl)-N-methylmethanamine]: the Ki in assay [1] (setting [4]) was determined as 7.4 nM; in assay [2] it was 19 nM.

In the case of `CNCc1cc(OCc2cc(F)c(F)cc2F)n(Cc2ccc(C)cc2)n1` [Example 286, N-methyl-1-{1-(4-methylbenzyl)-5-[(2,4,5-trifluoro-benzyl)oxy]-1H-pyrazol-3-yl}methanamine], the Ki in assay [1] (setting [4]) came out at 5.5 nM; in assay [2] it was 6.6 nM.

Turning to `CNCc1cc(OCc2cc(Cl)ccc2F)n(CC2CCCC2)n1` [Example 148, 1-{5-[(5-chloro-2-fluorobenzyl)oxy]-1-(cyclopentylmethyl)-1H-pyrazol-3-yl}-N-methylmethanamine], the figures for the Ki in assay [1] (setting [4]) and in assay [2] were 4.6 nM and 1.9 nM, respectively.

Consider `CNCc1cc(OCc2ccccc2)n(Cc2ccccc2)n1` [Example 1, 1-[1-Benzyl-5-(benzyloxy)-1H-pyrazol-3-yl]-N-methylmethanamine hydrochloride], for which the Ki in assay [1] (setting [4]) turned out to be 4.9 nM; in assay [2], 26 nM.

As for `CNCc1cc(OCc2cc(F)c(F)cc2F)n(CCC(C)(C)C)n1` [Example 284, 1-{1-(3,3-dimethylbutyl)-5-[(2,4,5-trifluorobenzyl)-oxy]-1H-pyrazol-3-yl}-N-methylmethanamine], the figures for the Ki in assay [1] (setting [4]) and in assay [2] were 5.7 nM and 7.9 nM, respectively.

Regarding `CNCc1cc(OCc2cc(F)c(F)cc2F)n(CC2CCCC2)n1` [Example 280, 1-{1-(cyclopentylmethyl)-5-[(2,4,5-trifluorobenzyl)-oxy]-1H-pyrazol-3-yl}-N-methylmethanamine], the inhibition constant (Ki) in assay [1] (setting [4]) came out at 1.9 nM; in assay [2] it was 9.7 nM.

With `Fc1ccc(F)c(COc2cc(CNC3CC3)nn2CC2CCCCC2)c1` [Example 342, N-({1-(Cyclohexylmethyl)-5-[(2,5-difluorobenzyl)oxy]-1H-pyrazol-3-yl}methyl)cyclopropanamine], the results for the Ki in assay [1] (setting [4]) and in assay [2] were 8.5 nM and 14 nM, respectively.

For the molecule `CNCc1cc(OCc2cc(F)ccc2F)n(Cc2ccc(F)cc2)n1` [Example 219, 1-{5-[(2,5-difluorobenzyl)oxy]-1-(4-fluorobenzyl)-1H-pyrazol-3-yl}-N-methylmethanamine], the Ki was 1.6 nM in assay [1] (setting [4]) and 10 nM in assay [2].

Regarding `CNCc1cc(OCc2ccccc2F)n(CCC(C)C)n1` [Example 381, 1-{5-[(2-fluorobenzyl)oxy]-1-(3-methylbutyl)-1H-pyrazol-3-yl}-N-methylmethanamine], the inhibition constant (Ki) in assay [1] (setting [4]) worked out at 3.4 nM; in assay [2], 10 nM.

Regarding `CNCc1cc(OCc2cc(F)ccc2F)n(CC2(C(F)(F)F)CCCC2)n1` [Example 447, 1-(5-[(2,5-difluorobenzyl)oxy]-1-{[1-(trifluoro-methyl)cyclopentyl]methyl}-1H-pyrazol-3-yl)-N-methylmethanamine], the Ki in assay [1] (setting [4]) stood at 0.5 nM; in assay [2] it was 13 nM.

In the case of `CNCc1cc(OCc2ccc(F)cc2)n(CC2CCCC2)n1` [Example 137, 1-{1-(cyclopentylmethyl)-5-[(4-fluorobenzyl)oxy]-1H-pyrazol-3-yl}-N-methylmethanamine], the Ki was 6.6 nM in assay [1] (setting [4]) and 7.9 nM in assay [2].

With `CNCc1cc(OCc2cc(F)ccc2F)n(CC2CCCC2)n1` [Example 147, 1-{1-(cyclopentylmethyl)-5-[(2,5-difluorobenzyl)oxy]-1H-pyrazol-3-yl}-N-methylmethanamine], the values for the inhibition constant Ki in assay [1] (setting [4]) and in assay [2] were 0.71 nM and 4.8 nM, respectively.

The record behind these values is US10183913B2, “Pyrazole compound” (Sumitomo Dainippon Pharma Co., Ltd., priority 2010, dated 2019).
